Where a name gives a salt, the structure may show the parent alone. Read-outs that look alike come from different tables or passages of the source.
Experiments:
[1] = target: T1, H3 histaminergic receptors (Rattus norvegicus, UniProt Q9QYN8); test: Reversal by H3 antagonists of exogenous histamine-induced inhibition of histamine release in sections of rat cerebral cortex (Arrang et al.); format: biochemical
Text: This method employs sections of rat cerebral cortex, and made possible the pharmacological characterisation of the H3 receptors (Nature, 1987, 327; 117-123).
This effect is progressively reversed in the presence of H3 antagonists such as the compounds of the invention, added at increasing concentrations. […]

[2] = target: T1, H3 histaminergic receptors; conditions: histamine at a concentration of 1 μM; cited from earlier work
[3] = read-out: Apparent dissociation constant (Ki) as histamine antagonists at receptors of rat brain, sections of rat cerebral cortex, exogenous histamine 1 μM, apparent Ki calculated from IC50 according to Cheng and Prusoff with histamine EC=0.1 μM

T1 sequence (Q9QYN8 whole entry): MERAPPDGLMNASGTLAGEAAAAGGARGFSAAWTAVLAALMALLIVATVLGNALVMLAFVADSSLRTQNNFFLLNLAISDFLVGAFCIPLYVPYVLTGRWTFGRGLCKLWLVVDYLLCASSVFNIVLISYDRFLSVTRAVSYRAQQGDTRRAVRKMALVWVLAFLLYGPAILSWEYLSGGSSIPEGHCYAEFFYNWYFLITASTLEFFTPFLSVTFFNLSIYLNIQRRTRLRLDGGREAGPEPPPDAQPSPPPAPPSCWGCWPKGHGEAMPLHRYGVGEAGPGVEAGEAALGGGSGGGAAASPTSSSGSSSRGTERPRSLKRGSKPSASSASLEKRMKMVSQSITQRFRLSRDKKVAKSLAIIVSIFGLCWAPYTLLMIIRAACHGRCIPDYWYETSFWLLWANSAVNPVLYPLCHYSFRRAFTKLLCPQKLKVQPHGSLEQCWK

Row | SMILES | Ki [1] [nM] | further results
1 | OC(=CCCCCCCCCCOc1ccccc1)N1CCC(c2c[nH]cn2)CC1 [Compound 60, 1-(1-Hydroxy-11-phenoxy-1-undecen-1-yl)-4-(4-imidazolyl)piperidine (dihydrochloride)] | 120 | –
2 | NCCc1c[nH]cn1 [histamine] | – | Inhibition of release by exogenous histamine [2]: approximately 50%
3 | O=C(CCCOc1ccccc1)N1CCC(c2cn(C(=O)Nc3ccc(Cl)cc3Cl)cn2)CC1 [Compound 92, 1-(4-Phenoxybutylryl)-4-[1-(2,4-Dichlorophenylaminocarbonyl)-4-imidazolyl]piperidine] | – | Ki [1, 3]: 34 nM
4 | O=C(N1CCC(c2c[nH]cn2)CC1)C12CC3CC(CC(C3)C1)C2 [Compound 8] | – | Ki [1, 3]: 63 nM
5 | CCCCCCC(=O)N1CCC(c2cnc[nH]2)CC1 [Compound 1] | 48 | –
6 | O=C(NCCC1CCCCC1)N1CCC(c2c[nH]cn2)CC1 [Compound 77] | 68 | –
7 | O=C(CC1CCC1)N1CCC(c2c[nH]cn2)CC1 [Compound 20] | 59 | –
8 | O=C(CC1CC2CCC1C2)N1CCC(c2c[nH]cn2)CC1 (centres unmarked) [Compound 23, 1-(Norbornylmethylcarbonyl)-4-(1H-imidazol-4-yl)piperidine] | 23 | –

Further lines, with some results ahead:

Row | Ki [1] [nM] | SMILES | further results
9 | 47 | OC(=CCCc1ccccc1)N1CCC(c2c[nH]cn2)CC1 [Compound 59, 1-(1-Hydroxy-4-phenyl-1-buten-1-yl)-4-(4-imidazolyl)piperidine (Dihydrochloride)] | –
10 | 35 | O=C(CCCc1cccs1)N1CCC(c2c[nH]cn2)CC1 [Compound 43] | –
11 | 65 | O=C(CCCCCCc1ccccc1)N1CCC(c2c[nH]cn2)CC1 [Compound 48] | –
12 | 20 | O=C(C1CC1c1ccccc1)N1CCC(c2c[nH]cn2)CC1 (centres unmarked) [Compound 13] | –
13 | 84 | O=C(CCc1ccccc1)N1CCC(c2c[nH]cn2)CC1 [Compound 38, 1-(3-Phenylpropionyl)-4-(1H-imidazol-4-yl)piperidine (Oxalate)] | –
14 | 77 | O=C(NCCCc1ccccc1)N1CCC(c2c[nH]cn2)CC1 [Compound 83] | –
